A short description of one data set: in vitro. Conditions: human, HepG2 cells.
The test system of data set [1] is HepG2. The data set can be described thus: Cytotoxicity against human HepG2 cells assessed as compound concentration causing changes in mitochondrial potential by Cell Health assay. It counts as cell-based.
For another data set, the target named is Albumin (Homo sapiens, UniProt P02768). Put plainly: Binding affinity to human serum albumin. Type of data set: ADME. Conditions: isolated protein.
Data set [2] is described as follows: Cytotoxicity against human HepG2 cells incubated for 48 hrs by Cell-titer Glo assay. Conditions: read-out: TC50. It counts as cell-based.
The test system of data set [3] is Mycobacterium tuberculosis. Put plainly: microbe, parasite or virus in culture. Conditions: H37Rv, THP-1, 96 h.
Description: Antitubercular activity against Mycobacterium tuberculosis H37Rv infected in human THP1 macrophages incubated for 4 days by luciferase reporter gene assay
A short description of data set [4]: Kinetic solubility in pH 7.4 phosphate buffered saline incubated for 1 hr by chemiluminescent nitrogen detection method. Type of data set: physicochemical. The settings on record: read-out: Kinetic_solubility.
Data set [5] can be described thus: Solubility of the compound in FaSSIF at pH 6.5 incubated for 4 hrs by UPLC-MS method. It counts as physicochemical.
Data set [6] is described as follows: Lipophilicity, log D of the compound at pH 7.4 by UV-HPLC method. It counts as physicochemical. The settings on record: buffer, read-out: logD.
The subject of data set [7] is HepG2. The data set can be described thus: Cytotoxicity against human HepG2 cells assessed as compound concentration causing changes in membrane permeability by Cell Health assay. It counts as cell-based.
For data set [8], the system named is HepG2. Put plainly: Cytotoxicity against human HepG2 cells assessed as compound concentration causing changes in nuclear morphology by Cell Health assay. Type of data set: cell-based.
Data set [9] deals with Mycobacterium tuberculosis. The data set can be described thus: microbe, parasite or virus in culture. Conditions: 144 h.
Description: Antitubercular activity against Mycobacterium tuberculosis after 6 days by resazurin-based fluorescence assay
The target in data set [10] is Voltage-gated inwardly rectifying potassium channel KCNH2 (Homo sapiens, UniProt Q12809). Put plainly: Inhibition of human ERG by [3H]dofetilide binding displacement assay.
The test system of data set [11] is Mycobacterium tuberculosis. It counts as functional, H37Rv.
Data set [12] is described as follows: Cmax in C57BL/6 mouse at 50 mg/kg, po after 1 to 24 hrs by LC-MS/MS method. It counts as ADME, organism-based. Set-up: dose 50 mg/kg, route oral. Conditions: in vivo.
Data set [13] relates to Mus musculus. The data set can be described thus: Dose normalized AUC (0 to infinity) in C57BL/6 mouse at 1 mg/kg, iv after 1 to 24 hrs by LC-MS/MS method. It counts as ADME, organism-based. Conditions: in vivo.
Data set [14] in a line: Permeability of the compound by artificial membrane permeability assay. Type of data set: ADME. Conditions: PAMPA; read-out: permeability. On the technique in general: PAMPA measures passive passage across an artificial lipid membrane.
Data set [15] in a line: Oral bioavailability in C57BL/6 mouse at 50 mg/kg after 1 to 24 hrs by LC-MS/MS method. Type of data set: ADME, organism-based. Conditions: in vivo.
Data set [16] is described as follows: Volume of distribution at steady state in C57BL/6 mouse at 1 mg/kg, iv after 1 to 24 hrs by LC-MS/MS method. Type of data set: ADME, organism-based. Conditions: in vivo, read-out: Vdss.
The nature of data set [17]: AUC (0 to infinity) in C57BL/6 mouse at 1 mg/kg, iv after 1 to 24 hrs by LC-MS/MS method. Type of data set: ADME, organism-based. On the set-up: dose 1 mg/kg, time infinity, route intravenous. The settings on record: in vivo.
In data set [18] the test system is Mycobacterium tuberculosis. Type of data set: functional, H37Rv. This is another data set of the same source.
The nature of data set [19]: Half life in C57BL/6 mouse at 1 mg/kg, iv after 1 to 24 hrs by LC-MS/MS method. Type of data set: ADME, organism-based. The settings on record: in vivo.
Data set [20] concerns Mus musculus. Put plainly: Tlast in C57BL/6 mouse at 50 mg/kg, po after 1 to 24 hrs by LC-MS/MS method. Type of data set: ADME, organism-based. Conditions: in vivo.
A short description of data set [21]: Tmax in C57BL/6 mouse at 50 mg/kg, po after 1 to 24 hrs by LC-MS/MS method. It counts as ADME, organism-based. Conditions: in vivo.
Data set [22] can be described thus: Clearance in C57BL/6 mouse at 1 mg/kg, iv after 1 to 24 hrs by LC-MS/MS method. Type of data set: ADME, organism-based. The settings on record: in vivo.
A short description of data set [23]: Volume of distribution at steady state in C57BL/6 mouse at 4 mg/kg, iv after 1 to 24 hrs by LC-MS/MS method. It counts as ADME, organism-based. The settings on record: in vivo, read-out: Vdss.
A short description of data set [24]: Clearance in C57BL/6 mouse at 4 mg/kg, iv after 1 to 24 hrs by LC-MS/MS method. It counts as ADME, organism-based. Conditions: in vivo.
Data set [25] has as its system Mus musculus. Put plainly: Dose normalized AUC (0 to infinity) in C57BL/6 mouse at 4 mg/kg, iv after 1 to 24 hrs by LC-MS/MS method. It counts as ADME, organism-based. The settings on record: in vivo.
Data set [26] is described as follows: Half life in C57BL/6 mouse at 4 mg/kg, iv after 1 to 24 hrs by LC-MS/MS method. Type of data set: ADME, organism-based. The settings on record: in vivo.
Data set [27] is described as follows: AUC (0 to infinity) in C57BL/6 mouse at 4 mg/kg, iv after 1 to 24 hrs by LC-MS/MS method. It counts as ADME, organism-based. Set-up: dose 4 mg/kg, route intravenous, time infinity. Conditions: in vivo.

The term IC50 denotes the concentration that inhibits the measured activity by half. A lower IC50 goes with greater potency in that assay. What is called solubility is how much of the substance goes into solution per volume. A low value points to a poorly soluble substance. As a reminder, the logD is lipophilicity at a set pH, counting ionised and neutral species. For orientation: Cmax means the peak of the concentration-time curve. For orientation: bioavailability means the share of a dose that reaches the circulation, judged against a reference dose that is usually intravenous. Lower therefore signals little systemic uptake. Usually AUC(0-inf) stands for total exposure, with the tail of the curve extrapolated. As usually defined, the half-life is the time in which the quantity being followed falls by half. Low readings indicate fast loss, high ones slow loss. A word on the Tmax: it is the time at which the peak concentration occurs. Usually clearance stands for the volume of plasma or blood freed of the substance per unit of time. A low value points to a low capacity for elimination.

Converted amounts (≈) assume the structure as drawn.

Voltage-gated inwardly rectifying potassium channel KCNH2, sequence (Q12809 whole entry): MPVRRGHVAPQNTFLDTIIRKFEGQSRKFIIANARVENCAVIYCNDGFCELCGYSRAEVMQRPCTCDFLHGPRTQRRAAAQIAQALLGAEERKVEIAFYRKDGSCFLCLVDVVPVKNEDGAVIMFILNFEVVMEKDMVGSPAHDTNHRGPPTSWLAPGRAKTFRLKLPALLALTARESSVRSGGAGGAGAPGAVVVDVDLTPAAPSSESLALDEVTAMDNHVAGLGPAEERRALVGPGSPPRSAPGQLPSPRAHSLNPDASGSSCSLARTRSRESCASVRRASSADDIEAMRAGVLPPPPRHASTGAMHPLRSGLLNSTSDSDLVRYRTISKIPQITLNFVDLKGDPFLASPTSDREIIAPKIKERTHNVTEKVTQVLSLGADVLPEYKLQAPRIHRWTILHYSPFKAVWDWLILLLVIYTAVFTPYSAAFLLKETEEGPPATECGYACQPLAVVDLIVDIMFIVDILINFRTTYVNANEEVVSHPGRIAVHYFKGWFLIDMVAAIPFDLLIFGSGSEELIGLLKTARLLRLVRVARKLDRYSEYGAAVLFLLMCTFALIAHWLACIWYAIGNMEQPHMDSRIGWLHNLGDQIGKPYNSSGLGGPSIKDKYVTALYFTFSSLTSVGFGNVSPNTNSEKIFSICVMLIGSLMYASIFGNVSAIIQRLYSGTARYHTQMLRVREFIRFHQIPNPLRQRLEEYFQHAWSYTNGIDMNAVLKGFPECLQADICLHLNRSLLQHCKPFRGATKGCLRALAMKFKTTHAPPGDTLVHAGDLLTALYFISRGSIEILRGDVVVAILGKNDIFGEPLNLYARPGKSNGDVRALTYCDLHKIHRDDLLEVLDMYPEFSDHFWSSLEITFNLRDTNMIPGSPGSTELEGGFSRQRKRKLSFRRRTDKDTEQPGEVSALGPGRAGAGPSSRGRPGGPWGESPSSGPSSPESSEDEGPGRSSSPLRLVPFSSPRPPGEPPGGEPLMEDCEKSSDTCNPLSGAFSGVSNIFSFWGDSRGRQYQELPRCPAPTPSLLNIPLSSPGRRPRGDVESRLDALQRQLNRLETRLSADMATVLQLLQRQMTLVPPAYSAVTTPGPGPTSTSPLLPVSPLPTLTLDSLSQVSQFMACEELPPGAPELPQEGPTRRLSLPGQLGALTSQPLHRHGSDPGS
Albumin, sequence (P02768 whole entry): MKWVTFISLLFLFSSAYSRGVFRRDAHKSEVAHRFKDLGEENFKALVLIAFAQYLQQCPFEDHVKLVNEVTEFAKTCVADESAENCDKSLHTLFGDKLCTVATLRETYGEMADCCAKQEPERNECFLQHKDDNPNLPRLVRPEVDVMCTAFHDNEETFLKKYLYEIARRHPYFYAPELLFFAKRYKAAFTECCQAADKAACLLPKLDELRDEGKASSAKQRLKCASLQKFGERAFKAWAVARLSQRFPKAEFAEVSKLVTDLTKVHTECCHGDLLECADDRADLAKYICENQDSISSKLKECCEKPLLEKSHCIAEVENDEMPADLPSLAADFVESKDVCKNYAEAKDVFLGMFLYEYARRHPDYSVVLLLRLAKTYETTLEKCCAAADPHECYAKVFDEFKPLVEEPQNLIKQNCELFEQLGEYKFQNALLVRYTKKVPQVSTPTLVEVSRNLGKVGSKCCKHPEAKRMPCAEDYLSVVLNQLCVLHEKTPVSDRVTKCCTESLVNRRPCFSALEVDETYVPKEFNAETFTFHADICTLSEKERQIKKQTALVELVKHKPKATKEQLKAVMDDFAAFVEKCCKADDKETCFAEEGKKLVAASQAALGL
Description for in vitro: Selectivity index, ratio of TC50 for human HepG2 cells to MIC for Mycobacterium tuberculosis

With `Cc1c(CN2CCOCC2)cc(-c2ccc(C(C)C)cc2)n1C1CC1`, the selectivity ratio in the data set “in vitro” was 67. Moreover, the Activity in the data set with HepG2 [1] came to 50 µM; at Albumin, 96.49%; in the data set on HepG2 [7], 40 µM; in the data set on HepG2 [8] it was 40 µM. Moreover, the CC50 at 48 h in data set [2] is 20 µM. In addition, the IC50 in data set [3] stood at 0.2 µM; in data set [10], 8 µM. Further, the solubility kinetic at 1 h in [4] is 181 µM (≈ 61.3 µg/mL). Also, in data set [5], the solubility at 4 h is 511 µg/mL (≈ 1510 µM). In addition, in data set [6], the logD amounted to 7.21. The MIC in [9] was determined as 0.3 µM (≈ 0.102 µg/mL).

Take `COc1c(N2C[C@@H]3CCCN[C@@H]3C2)c(F)cc2c(=O)c(C(=O)O)cn(C3CC3)c12` [MOXIFLOXACIN]: the Activity in data set [11] came out at 3.1 log10CFU.

With `Cc1c(CN2CCOCC2)cc(-c2ccc(C(C)C)cc2)n1C1CCCOC1` (stereo unspecified), the selectivity ratio in “in vitro” was 333. In addition, the Activity with HepG2 [1] is above 200 µM; on Albumin it was 92.85%; in data set [18] it was 0.1 log10CFU; in the data set on HepG2 [7], above 200 µM; with HepG2 [8], above 200 µM. The peak level in [12] (Cmax) was 548 ng/mL. The same compound yielded an AUC/dose in the data set on Mus musculus [13] of 138 ng·h/mL/mg/kg. Moreover, the Papp in data set [14] was found to be 73 ×10⁻⁶ cm/s. In data set [15], this compound returned a bioavailability of 23%. Further, the Vd in data set [16] was 3.5 L/kg. For the same compound, the AUC(0-inf) in data set [17] was 138 ng·h/mL. In [2], the CC50 at 48 h stood at 50 µM. The IC50 is 0.3 µM in data set [3] and 10 µM in [10]. Moreover, the solubility kinetic at 1 h in data set [4] amounted to 241 µM (≈ 92.2 µg/mL). In [19], this compound gave a half-life of 24 min. This compound displayed a solubility at 4 h in data set [5] of 43 µg/mL (≈ 112 µM). This compound also yielded a Tlast in the data set on Mus musculus [20] of 8 h. Besides, the Tmax in data set [21] stood at 54 min. Further, the logD in data set [6] was 6.86. The same compound registered a clearance in data set [22] of 125 mL/min/kg. Moreover, the MIC in [9] was 0.15 µM (≈ 0.0574 µg/mL).

Regarding `Cc1c(CN2CCOCC2)cc(-c2ccc(C(C)C)cc2)n1-c1ccc(F)cc1`, in “in vitro”, the selectivity ratio was 333. The Activity with HepG2 [1] is above 40 µM; at Albumin, 98.37%; with HepG2 [7], above 40 µM; with HepG2 [8], above 40 µM. Also, the Papp in data set [14] worked out at 24 ×10⁻⁶ cm/s. In addition, the CC50 at 48 h in data set [2] came to 40 µM. Besides, the results for the IC50 in data set [3] and in data set [10] were 0.1 µM and 10 µM, respectively. In addition, the solubility kinetic at 1 h in data set [4] is below 1 µM. This compound also displayed a solubility at 4 h in [5] of 5 µg/mL (≈ 12.7 µM). In data set [6], the logD stood at 8.1. Besides, the MIC in data set [9] was 0.12 µM (≈ 0.0471 µg/mL).

For the compound `Cc1c(CN2CCOCC2)cc(-c2ccc(C(C)C)cc2)n1C(C)C`, the Activity came out at 32 µM in the data set on HepG2 [1]; 94.11% at Albumin; 1.5 log10CFU in data set [18]; 32 µM with HepG2 [7]; 25 µM in the data set with HepG2 [8]. Further, in data set [12], the highest level (Cmax) was 177 ng/mL. Further, the Vd in data set [23] turned out to be 1.8 L/kg. The Papp in data set [14] stood at 72 ×10⁻⁶ cm/s. Moreover, the bioavailability in [15] was 1.2%. Further, the CC50 at 48 h in data set [2] is 20 µM. In addition, the solubility kinetic at 1 h in data set [4] amounted to 199 µM (≈ 67.8 µg/mL). The solubility at 4 h in data set [5] was found to be 249 µg/mL (≈ 731 µM). Besides, the Tlast with Mus musculus [20] stood at 7.3 h. For the same compound, in data set [24], the clearance amounted to 16.9 mL/min/kg. In data set [21], the Tmax is 42 min. Also, in [6], the logD worked out at 7.68. In [9], the MIC turned out to be 0.15 µM (≈ 0.0511 µg/mL). This compound also returned an AUC/dose with Mus musculus [25] of 1006 ng·h/mL/mg/kg. In data set [26], this compound had a half-life of 102 min. Further, the AUC(0-inf) in [27] turned out to be 4020 ng·h/mL.

`Cc1c(CN2CCOCC2)cc(-c2ccc(C(C)C)cc2)n1-c1ccc(F)cn1`: the selectivity ratio in “in vitro” is 33. Also, the Activity in the data set with HepG2 [1] worked out at 80 µM; at Albumin it was 94.13%; in the data set on HepG2 [7] it was 63 µM; in the data set on HepG2 [8], 50 µM. Besides, the Papp in data set [14] is 64 ×10⁻⁶ cm/s. Also, the CC50 at 48 h in data set [2] is 20 µM. Also, the IC50 in data set [3] turned out to be 0.6 µM; in [10], 8 µM. Also, the solubility kinetic at 1 h in data set [4] turned out to be 276 µM (≈ 109 µg/mL). Also, the logD in data set [6] stood at 6.85. The MIC in [9] is 0.6 µM (≈ 0.236 µg/mL).

These data come from ChEMBL document CHEMBL4251653, “In vivo potent BM635 analogue with improved drug-like properties” (Eur J Med Chem, 2018).
